The values that follow come from patent US11498928B2, “Macrocyclic spiroethers as Mcl-1 inhibitors” (ASCENTAGE PHARMA (SUZHOU) CO., LTD., priority 2019, dated 2022).

Assay [1] has as its target T1, Mcl-1 protein (residues 171-323) (Homo sapiens, UniProt Q07820).
T1 construct: Tag-free Mcl-1 protein (residues 171-323) was used in the FP assay
In words: Inhibition of Mcl-1 by fluorescence polarization (FP) competitive binding assay with FAM-Bid tracer. Particulars: 2 nM FAM-Bid, 20 nM Mcl-1, 30 min. In short, it runs like this:
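Ten-point compound titrations compete against 2 nM fluorescein-Bid for 20 nM Mcl-1 (171-323, untagged). Incubation 30 min RT in PBS buffer with BGG and Triton, 5% DMSO final. mP reduction fitted by sigmoidal nonlinear regression for IC50.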

The test system of assay [2] is OPM-2 cells. The assay can be described thus: Cell viability assay (OPM-2 cells), CCK-8. Type of assay: cell-based. Conditions: 5% FBS. The method, boiled down: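 Viability read by CCK-8 absorbance (450 nm, 4 h reagent incubation) after 24 h compound exposure of 20000 OPM-2 cells per well at 37 °C. IC50 fitted by nonlinear regression on vehicle-normalized signal.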

Assay [3] deals with NCI-H929 cells. The assay can be described thus: Cell viability assay (NCI-H929 cells), CCK-8. The format is cell-based. Conditions: 5% FBS. In short, it runs like this: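 Viability of NCI-H929 cells was measured using the Cell Counting Kit-8. After 24 hrs of compound exposure, 10 μL of CCK-8 solution per well was incubated for 1-4 hours, and absorbance was read at 450 nm on a BioTek Synergy 1MF. Readings were normalized to vehicle (DMSO) cells, and IC50 values were derived by nonlinear regression in GraphPad Prism 6.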

T1 sequence (Q07820 171-323): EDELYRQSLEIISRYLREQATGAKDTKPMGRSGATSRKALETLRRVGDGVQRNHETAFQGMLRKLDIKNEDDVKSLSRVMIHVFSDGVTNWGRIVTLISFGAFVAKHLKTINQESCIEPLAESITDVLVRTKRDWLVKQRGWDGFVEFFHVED

Take `CO[C@@]1(CN2CCN3CCOC[C@@H]3C2)C2=C[C@@H](C2)[C@H](C)[C@@H](C)S(=O)(=O)NC(=O)c2ccc3c(n2)N(C[C@@H]2CC[C@H]21)C[C@@]1(CCCc2c1ccc(Cl)c2F)CO3` [compound 54, (1S,11′R,12′S,13′R,16′R,16a′R,18a′R,E)-6-chloro-5-fluoro-16′-(((S)-hexahydropyrazino[2,1-c][1,4]oxazin-8(1H)-yl)methyl)-16′-methoxy-11′,12′-dimethyl-3,4,12′,13′,16′,16a′,17′,18′,18a′,19′-decahydro-1′H,2H,3′H, 11′H-spiro[naphthalene-1,2′-[5,7]etheno[13,15]methanocyclobuta[i][1,4]oxazepino[3,4-f][1]thia[2,5,7]triazacyclohexadecin]-8′(9′H)-one 10′,10′-dioxide]: the IC50 in assay [1] came to 15 nM; in assay [2] (Homo sapiens, OPM-2, 24 h), 56 nM; in assay [3] (Homo sapiens, NCI-H929, 24 h), 4.9 nM.
Regarding `CO[C@@]1(CN2CCOCC2)C2=C[C@@H](C2)[C@H](C)[C@@H](C)S(=O)(=O)NC(=O)c2ccc3c(c2)N(C[C@@H]2CC[C@H]21)C[C@@]1(CCCc2c1ccc(Cl)c2F)CO3` [compound 33, (1S,11′R,12′S,13′R,16′R,16a′R,18a′R,E)-6-chloro-5-fluoro-16′-methoxy-11′,12′-dimethyl-16′-(morpholinomethyl)-3,4,12′,13′,16′,16a′,17′,18′,18a′,19′-decahydro-1′H,2H,3′H,11′H-spiro[naphthalene-1,2′-[5,7]etheno[13,15]methanocyclobuta[i][1,4]oxazepino[3,4-f][1]thia[2,7]diazacyclohexadecin]-8′(9′H)-one 10′,10′-dioxide], the IC50 in assay [1] came out at 13 nM; in assay [2] (Homo sapiens, OPM-2, 24 h), 52 nM; in assay [3] (Homo sapiens, NCI-H929, 24 h), 36 nM.
Taken in the same sequence, the figures for `C[C@@H]1[C@@H](C)S(=O)(=O)NC(=O)c2ccc3c(c2)N(C[C@@H]2CC[C@H]2[C@@H](OCCN2C[C@@H](C)O[C@@H](C)C2)C2=C[C@H]1C2)C[C@@]1(CCCc2c1ccc(Cl)c2F)CO3` [compound 82, (1S,11′R,12′S,13′R,16′R,16a′R,18a′R,E)-6-chloro-16′-(2-((2S,6R)-2,6-dimethylmorpholino)ethoxy)-5-fluoro-11′,12′-dimethyl-3,4,12′,13′,16′,16a′,17′,18′,18a′,19′-decahydro-1′H,2H,3′H,11′H-spiro[naphthalene-1,2′-[5,7]etheno[13,15]methanocyclobuta[i][1,4]oxazepino[3,4-f][1]thia[2,7]diazacyclohexadecin]-8′(9′H)-one 10′,10′-dioxide] were 31 nM, 54 nM and 56 nM.
Turning to `C[C@@H]1[C@@H](C)S(=O)(=O)NC(=O)c2ccc3c(c2)N(C[C@@H]2CC[C@H]2[C@@H](OCCN(C)C)C2=C[C@H]1C2)C[C@@]1(CCCc2c1ccc(Cl)c2F)CO3` [compound 77, (1S,11′R,12′S,13′R,16′R,16a′R,18a′R,E)-6-chloro-16′-(2-(dimethylamino)ethoxy)-5-fluoro-11′,12′-dimethyl-3,4,12′,13′,16′,16a′,17′,18′,18a′,19′-decahydro-1′H,2H,3′H,1 PH-spiro[naphthalene-1,2′-[5,7]etheno[13,15]methanocyclobuta[i][1,4]oxazepino[3,4-f][1]thia[2,7]diazacyclohexadecin]-8′(9′H)-one 10′,10′-dioxide], the 50% inhibitory concentration (IC50) was determined as 8.5 nM in assay [1]; 68 nM in assay [2] (Homo sapiens, OPM-2, 24 h); 5.3 nM in assay [3] (Homo sapiens, NCI-H929, 24 h).
Taken in the same sequence, the figures for `C[C@@H]1[C@@H](C)S(=O)(=O)NC(=O)c2ccc3c(c2)N(C[C@@H]2CC[C@H]2[C@@H](OCC(=O)O)C2=C[C@H]1C2)C[C@@]1(CCCc2c1ccc(Cl)c2F)CO3` [compound 74, 2-(((1S,11′R,12′S,13′R,16′R,16a′R,18a′R,E)-6-chloro-5-fluoro-11′,12′-dimethyl-10′,10′-dioxido-8′-oxo-3,4,8′,9′,12′,13′,16′,16a′,17′,18′,18a′,19′-dodecahydro-1′H,2H,3′H,11′H-spiro[naphthalene-1,2′-[5,7]etheno[13,15]methanocyclobuta[i][1,4]oxazepino[3,4-f][1]thia[2,7]diazacyclohexadecin]-16′-yl)oxy)acetic acid] were 20 nM, 384 nM and 450 nM.
As to `CO[C@H]1C2=CC(C2)[C@H](C)CS(=O)(=O)NC(=O)c2ccc3c(c2)N(C[C@@H]2CC[C@H]21)C[C@@]1(CCCc2cc(Cl)ccc21)CO3` (single isomer, unassigned) [Cpd. No. 14 (Isomer 2)], the results for the IC50 in assay [1], in assay [2] (24 h) and in assay [3] (24 h) were 11 nM, 1310 nM and 150 nM, respectively.
As for `CO[C@H]1C2=C[C@H](C2)[C@H](C)N(C[C@H]2CCCO2)S(=O)(=O)NC(=O)c2ccc3c(c2)N(C[C@@H]2CC[C@H]21)C[C@@]1(CCCc2cc(Cl)ccc21)CO3` (single isomer, unassigned) [30 (isomer 2)], the IC50 in assay [1] came out at 5.1 nM; in assay [2] (Homo sapiens, OPM-2, 24 h), 4770 nM; in assay [3] (Homo sapiens, NCI-H929, 24 h) it was 4700 nM.
Taken in the same sequence, the figures for `CO[C@@]1(CN2CCNCC2)C2=C[C@@H](C2)[C@H](C)[C@@H](C)S(=O)(=O)NC(=O)c2ccc3c(c2)N(C[C@@H]2CC[C@H]21)C[C@@]1(CCCc2c1ccc(Cl)c2F)CO3` [compound 41, (1S,11′R,12′S,13′R,16′R,16a′R,18a′R,E)-6-chloro-5-fluoro-16′-methoxy-11′,12′-dimethyl-16′-(piperazin-1-ylmethyl)-3,4,12′,13′,16′,16a′,17′,18′,18a′,19′-decahydro-1′H,2H,3′H, 11′H-spiro[naphthalene-1,2′-[5,7]etheno[13,15]methanocyclobuta[i][1,4]oxazepino[3,4-f][1]thia[2,7]diazacyclohexadecin]-8′(9′H)-one 10′,10′-dioxide] were 26 nM, 156 nM and 190 nM.
`CO[C@@]1(CN2C[C@@H](C)N[C@@H](C)C2)C2=C[C@@H](C2)[C@H](C)[C@@H](C)S(=O)(=O)NC(=O)c2ccc3c(c2)N(C[C@@H]2CC[C@H]21)C[C@@]1(CCCc2c1ccc(Cl)c2F)CO3` [compound 43, (1S,11′R,12′S,13′R,16′R,16a′R,18a′R,E)-6-chloro-16′-(((3S,5R)-3,5-dimethylpiperazin-1-yl)methyl)-5-fluoro-16′-methoxy-11′,12′-dimethyl-3,4,12′,13′,16′,16a′,17′,18′,18a′,19′-decahydro-1′H,2H,3′H,11′H-spiro[naphthalene-1,2′-[5,7]etheno[13,15]methanocyclobuta[i][1,4]oxazepino[3,4-f][1]thia[2,7]diazacyclohexadecin]-8′(9′H)-one 10′,10′-dioxide]: the IC50 was 15 nM in assay [1]; 47 nM in assay [2] (Homo sapiens, OPM-2, 24 h); 35 nM in assay [3] (Homo sapiens, NCI-H929, 24 h).
Taken in the same sequence, the figures for `C[C@@H]1[C@@H](C)S(=O)(=O)NC(=O)c2ccc3c(c2)N(C[C@@H]2CC[C@H]2[C@@H](OCCN2C[C@@H](C)N[C@@H](C)C2)C2=C[C@H]1C2)C[C@@]1(CCCc2c1ccc(Cl)c2F)CO3` [compound 83, (1S,11′R,12′S,13′R,16′R,16a′R,18a′R,E)-6-chloro-16′-(2-((3 S,5R)-3,5-dimethylpiperazin-1-yl)ethoxy)-5-fluoro-11′,12′-dimethyl-3,4,12,′13′,16′,16a′,17′,18′,18a′,19′-decahydro-1′H,2H,3′H,11′H-spiro[naphthalene-1,2′-[5,7]etheno[13,15]methanocyclobuta[i][1,4]oxazepino[3,4-f][1]thia[2,7]diazacyclohexadecin]-8′(9′H)-one 10′,10′-dioxide] were 25 nM, 164 nM and 220 nM.
